The values below are quoted from earlier work in patent US12350135B2, “Absorbent article with odor control composition” (The Procter & Gamble Company, priority 2021, dated 2025).

Counter-ions that a name gives are not always drawn.

Conditions in one series: not given
Turning to `ClC=CC[N+]12CN3CN(CN(C3)C1)C2.[Cl-]` [Dowicil 200, 1-(3-Chlorallyl)-3,5,7-triaza-1-azoniaadamantane chloride], the “solubility in water (in words)” value is “freely soluble in water”.

Still in this series, the particulars now being: in water.
For `OCc1ccccc1` [benzyl alcohol], the water solubility entry is “about 4%”.

Turning to `[Na+].[O-][n+]1ccccc1[S-]` [sodium pyrithione], the water solubility entry was “about 50%”.

`OCCc1ccccc1` [2-phenylethanol]: the water solubility result was “about 2%”.

As for `OCCOc1ccccc1` [2-phenoxyethanol], the water solubility entry was “about 2.67%”.

For the molecule `CC(C)(O)C(Cl)(Cl)Cl` [chlorobutanol, 1,1,1,-Trichloro-2-methylpropan-2-ol], the water solubility result was “about 0.8%”.

With `[H]/N=C(\N/C(=N/[H])NCCCCCCNC(=N)NC(=N)Nc1ccc(Cl)cc1)Nc1ccc(Cl)cc1` [chlorhexidine digluconate salt, 1,1′-hexamethylene bis(5-(p-chlorophenyl)biguanide), reference compound], the water solubility entry was “about 70%”.

Take `CC1(C)C(=O)N(CO)C(=O)N1CO` [DMDM hydantoin, 1,3-bis(hydroxymethyl)-5,5-dimethyI-2,4-imidazolidinedione]: the water solubility result is listed as “more than 50%”.

For the molecule `O=[N+]([O-])C1(Br)COCOC1` [Bronidox L, 5-bromo-5-nitro-1,3-dioxane], the water solubility result is recorded as “about 0.46%”.

`[H]/N=C(\N/C(=N/[H])NCCCCCCNC(=N)NC(=N)Nc1ccc(Cl)cc1)Nc1ccc(Cl)cc1` [chlorhexidine diacetate salt, 1,1′-hexamethylene bis(5-(p-chlorophenyl)biguanide), reference compound]: the water solubility result is “about 1.8%”.
